Assays:
CYP2D6 = CYP2D6 (Homo sapiens, UniProt P10635); experiment: biochemical; settings: for IC50: IC50 (μM) of honokiol, Bufuralol 1'-hydroxylation
Description: (§1) The inhibitory potential (IC50 values) of honokiol on CYP activities was evaluated in pooled human liver microsomes using liquid chromatography-tandem mass spectrometry (LC-MS/MS). […] Honokiol was dissolved in acetonitrile. […] After a 3 min preincubation at 37 °C, the reactions were initiated by addition of an NADP generating system and incubated for 15 min at 37 °C in a shaking water bath. The reaction was then stopped by placement of the tubes on ice and adding 100 μL of ice-cold methanol containing internal standards (^13C2, ^15N-acetaminophen for acetaminophen and N-deethylamodiaquine, and d9-1-hydroxybufuralol for 4-hydroxydiclofenac, 4-hydroxybupropion, 7-hydroxycoumarin, 4-hydroxymephenytoin, 1'-hydroxybufuralol, and 1'-hydroxymidazolam). The incubation mixtures were then centrifuged at 13,000 × g for 4 min. All incubations were performed in triplicate, and average values were used.
(§2) The reaction was initiated by the addition of the cocktail containing seven CYP probe substrates and bupropion.
(§3) The metabolites formed from the seven CYP cocktail substrates were simultaneously determined according to our previously described LC-MS/MS method with minor modification; the concentration of 4-hydroxybupropion for CYP2B6 activity was quantified separately by LC-MS/MS. A tandem mass spectrometer (TSQ Quantum Access, Thermo Scientific, San Jose, CA, USA) coupled with a Nanospace SI-2 LC system (Tokyo, Japan) was used. The column and autosampler temperatures were 50 °C and 6 °C, respectively. The mass spectrometer was equipped with an electrospray ionization (ESI) source and operated in positive ion mode. The ESI source settings for ionization of the metabolites were as follows: capillary voltage, 4200 V; vaporizer temperature, 350 °C; capillary temperature 330 °C; sheath gas pressure, 35 psi; auxiliary gas pressure, 15 psi. Quantification was performed by selected reaction monitoring (SRM) of [M+H]^+ ions and the related product ions for each metabolite. […] Analytical data were processed using Xcalibur® software (Thermo Scientific).
(§4) The incubation mixtures were centrifuged at 13,000 × g for 4 min, and the supernatants were diluted as follows: dilution of 20 μL supernatant with 180 μL of 25% methanol for CYP2C8; dilution of 50 μL supernatant with 50 μL of water for CYP2C9, CYP2C19, CYP2D6, and CYP1A2; and dilution of 20 μL supernatant with 80 μL of water for CYP2B6. Aliquots (5 μL) of the diluted supernatants were then analyzed by LC-MS/MS.
(§5) The apparent kinetic parameters for inhibitory potential (Ki values) were estimated from the fitted curves using Enzyme Kinetics Ver. 1.1 software (Systat Software Inc.).

CYP2C9 = CYP2C9 (Homo sapiens, UniProt P11712); experiment: biochemical; settings: for IC50: IC50 (μM) of honokiol, Diclofenac 4-hydroxylation
Description: as §1, §2, §3, §4, §5

CYP2C19 = CYP2C19 (Homo sapiens, UniProt P33261); experiment: biochemical; settings: for IC50: IC50 (μM) of honokiol, S-Mephenytoin 4'-hydroxylation
Description: as §1, §2, §3, §4, §5

UGT1A9 = molecular target: T1, UGT1A9 (Homo sapiens, UniProt O60656); experiment: UGT1A9-catalyzed propofol glucuronidation inhibition in pooled human liver microsomes; assay type: in vitro ADME; settings: pooled HLM (H161)
T1 sequence (O60656 26-530): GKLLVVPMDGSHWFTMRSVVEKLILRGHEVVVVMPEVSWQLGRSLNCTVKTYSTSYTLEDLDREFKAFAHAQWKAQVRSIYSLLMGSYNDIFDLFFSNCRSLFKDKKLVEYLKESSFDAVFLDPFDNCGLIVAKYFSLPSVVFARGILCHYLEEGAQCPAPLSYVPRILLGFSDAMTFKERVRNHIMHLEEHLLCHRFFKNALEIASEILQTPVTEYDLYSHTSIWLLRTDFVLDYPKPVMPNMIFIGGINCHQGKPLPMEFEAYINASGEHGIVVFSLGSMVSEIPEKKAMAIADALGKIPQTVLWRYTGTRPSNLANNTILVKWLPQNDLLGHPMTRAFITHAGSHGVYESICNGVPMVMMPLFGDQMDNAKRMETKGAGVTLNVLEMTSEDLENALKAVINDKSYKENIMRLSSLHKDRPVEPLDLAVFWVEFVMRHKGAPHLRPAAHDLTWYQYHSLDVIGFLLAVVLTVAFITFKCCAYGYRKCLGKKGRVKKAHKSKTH
Description: The inhibitory potency (IC50 value) of honokiol on UGT1A1-catalyzed 17β-estradiol 3-glucuronidation, UGT1A4-catalyzed trifluoperazine glucuronidation, UGT1A9-catalyzed propofol glucuronidation, and UGT2B7-catalyzed azidothymidine glucuronidation activities was determined in pooled human liver microsomes by LC-MS/MS [48]. […] Reactions were initiated by the addition of UDPGA (final concentration, 5 mM), and incubations were carried out at 37 °C in a shaking water bath for 30 min. Reactions were terminated by adding 100 μL of ice-cold methanol containing an internal standard (500 ng/mL ezetimibe for 17β-estradiol 3-glucuronide and propofol glucuronide; 30 ng/mL meloxicam for trifluoperazine glucuronide and azidothymidine glucuronide). The incubation mixtures were then centrifuged at 13,000 × g for 4 min, followed by dilution of 30 μL of the supernatant with 70 μL of water. An aliquot (5 μL) was injected onto the LC-MS/MS. All incubations were performed in triplicate and the mean values were used. Glucuronides produced from UGT isoform-specific substrates were determined by LC-MS/MS [49].
The incubation mixtures were then centrifuged at 13,000 × g for 4 min, after which 30 μL of the supernatant was diluted with 70 μL of water. Aliquots (5 μL) were then analyzed by LC-MS/MS.
as §5

CYP2A6 = molecular target: T2, CYP2A6 (Homo sapiens, UniProt P11509); settings: microsomes
T2 sequence (P11509 1-494): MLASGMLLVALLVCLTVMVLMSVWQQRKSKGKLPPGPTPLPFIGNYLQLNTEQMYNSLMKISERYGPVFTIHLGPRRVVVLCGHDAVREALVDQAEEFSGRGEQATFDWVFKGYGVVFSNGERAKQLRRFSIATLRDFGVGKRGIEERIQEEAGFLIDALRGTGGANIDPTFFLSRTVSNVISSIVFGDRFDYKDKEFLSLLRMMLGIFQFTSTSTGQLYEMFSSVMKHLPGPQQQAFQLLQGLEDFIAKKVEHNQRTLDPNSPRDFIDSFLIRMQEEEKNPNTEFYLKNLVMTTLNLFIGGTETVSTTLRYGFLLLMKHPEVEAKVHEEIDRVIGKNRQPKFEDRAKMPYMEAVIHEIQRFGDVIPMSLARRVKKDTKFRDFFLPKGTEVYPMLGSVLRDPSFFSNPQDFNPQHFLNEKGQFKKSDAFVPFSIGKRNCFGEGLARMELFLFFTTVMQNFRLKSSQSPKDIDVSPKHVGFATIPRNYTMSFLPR
Description: as §1, with “used. […]” for “used.”
The metabolites formed from the seven CYP cocktail substrates were simultaneously determined according to our previously described LC-MS/MS method with minor modification; the concentration of 4-hydroxybupropion for CYP2B6 activity was quantified separately by LC-MS/MS. […] Quantification was performed by selected reaction monitoring (SRM) of [M+H]^+ ions and the related product ions for each metabolite. […]

[1] = with preincubation, 30 min preincubation with NADPH

Chain of CYP2C19 (P33261 whole entry): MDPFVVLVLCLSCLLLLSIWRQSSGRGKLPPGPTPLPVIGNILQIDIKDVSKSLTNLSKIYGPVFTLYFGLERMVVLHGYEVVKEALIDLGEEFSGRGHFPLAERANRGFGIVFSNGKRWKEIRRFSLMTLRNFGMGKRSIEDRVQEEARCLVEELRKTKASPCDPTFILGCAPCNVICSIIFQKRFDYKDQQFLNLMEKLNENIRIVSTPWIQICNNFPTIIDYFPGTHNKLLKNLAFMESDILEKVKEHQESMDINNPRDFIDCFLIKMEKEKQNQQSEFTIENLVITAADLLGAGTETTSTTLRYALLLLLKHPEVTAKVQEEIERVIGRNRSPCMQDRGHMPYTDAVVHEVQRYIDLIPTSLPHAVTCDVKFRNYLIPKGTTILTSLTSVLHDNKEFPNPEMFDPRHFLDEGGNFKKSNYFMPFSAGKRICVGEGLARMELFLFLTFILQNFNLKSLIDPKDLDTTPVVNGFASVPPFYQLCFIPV
Chain of CYP2D6 (P10635 whole entry): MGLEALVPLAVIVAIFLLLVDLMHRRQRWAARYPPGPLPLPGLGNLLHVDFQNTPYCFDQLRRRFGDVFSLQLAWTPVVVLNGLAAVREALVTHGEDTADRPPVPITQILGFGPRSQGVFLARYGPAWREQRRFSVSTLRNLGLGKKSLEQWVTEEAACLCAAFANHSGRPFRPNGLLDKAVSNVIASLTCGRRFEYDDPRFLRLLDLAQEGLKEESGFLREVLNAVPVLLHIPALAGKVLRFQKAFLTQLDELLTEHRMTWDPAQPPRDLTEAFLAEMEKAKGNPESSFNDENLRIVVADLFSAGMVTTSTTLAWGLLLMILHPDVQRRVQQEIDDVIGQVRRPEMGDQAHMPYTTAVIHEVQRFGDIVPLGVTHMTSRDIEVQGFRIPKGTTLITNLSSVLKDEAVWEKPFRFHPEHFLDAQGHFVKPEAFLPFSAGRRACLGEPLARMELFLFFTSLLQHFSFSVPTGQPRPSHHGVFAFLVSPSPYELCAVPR
Chain of CYP2C9 (P11712 whole entry): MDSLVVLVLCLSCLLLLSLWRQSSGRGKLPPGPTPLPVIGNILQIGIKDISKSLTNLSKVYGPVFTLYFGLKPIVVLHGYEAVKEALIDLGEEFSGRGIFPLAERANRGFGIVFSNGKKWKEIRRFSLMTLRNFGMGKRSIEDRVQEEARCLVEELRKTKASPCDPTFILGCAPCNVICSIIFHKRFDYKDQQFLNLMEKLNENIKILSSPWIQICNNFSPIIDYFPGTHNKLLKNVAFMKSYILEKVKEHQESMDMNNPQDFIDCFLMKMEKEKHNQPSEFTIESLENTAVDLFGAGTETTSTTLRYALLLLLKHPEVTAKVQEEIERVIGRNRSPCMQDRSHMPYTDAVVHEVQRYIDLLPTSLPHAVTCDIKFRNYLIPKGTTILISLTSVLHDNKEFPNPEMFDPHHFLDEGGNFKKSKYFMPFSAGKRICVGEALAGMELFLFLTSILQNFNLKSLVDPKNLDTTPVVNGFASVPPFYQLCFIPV

C=CCc1ccc(O)c(-c2ccc(O)c(CC=C)c2)c1 [honokiol, 2-(4-hydroxy-3-prop-2-enyl-phenyl)-4-prop-2-enyl-phenol]
Ki (CYP2D6): 12 µM | IC50 (CYP2D6; no preincubation, 5.0 μM bufuralol, pooled HLM (H161)): 14 µM | IC50 (CYP2D6; [1]): 38.1 µM | Ki (CYP2C9): 0.54 µM | IC50 (CYP2C9; no preincubation, 10 μM diclofenac, pooled HLM (H161)): 4.1 µM | IC50 (CYP2C9; [1]): 3.9 µM | Ki (CYP2C19): 0.57 µM | IC50 (CYP2C19; no preincubation, 100 μM [S]-mephenytoin, pooled HLM (H161)): 2.2 µM | IC50 (CYP2C19; [1]): 2.9 µM | Ki (UGT1A9; Propofol glucuronidation, 5–40 μM propofol): 0.3 µM | Inhibition mode (UGT1A9; Propofol glucuronidation): competitive | IC50 at 30 min (UGT1A9; human, pooled human liver microsomes, pH 7.4, probe propofol (10 μM), propofol glucuronidation, 10 μM propofol): 0.96 µM | IC50 (UGT1A9; propofol glucuronidation, 10 μM propofol): 0.98 µM | IC50 (μM) of honokiol, no preincubation (CYP2A6): No inhibition | IC50 (μM) of honokiol, with preincubation (CYP2A6): No inhibition

— paper PMC6269737, “Effect of Honokiol on Cytochrome P450 and UDP-Glucuronosyltransferase Enzyme Activities in Human Liver Microsomes” (Molecules, 2013)
